In patent US20230257396A1, “MACROCYCLES AND THEIR USE” (BLOSSOMHILL THERAPEUTICS, INC., priority 2020, published 2023):

Experiments:
Assay in all cases: KINOMEscan kinase binding assay (Eurofins/DiscoveRx), % Ctrl
[1] = biological target: T1, kinases (Homo sapiens, UniProt P00533, L861Q)
T1 construct: purchased Eurofins/DiscoveRx; host or cells: E. coli BL21-derived host (T7 phage display) for most kinases; HEK-293 for the rest
How it was run: (§1)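 Read-out is qPCR of kinase eluted from ligand-coated streptavidin beads after 1 h room-temperature competition with test compound. Values are % Ctrl at the tested concentration, lower meaning tighter binding.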

[2] = biological target: T2, kinases (Homo sapiens, UniProt P00519, H396P)
T2 construct: purchased Eurofins/DiscoveRx; host or cells: E. coli BL21-derived host (T7 phage display) for most kinases; HEK-293 for the rest
How it was run: as §1

[3] = biological target: T3, kinases (Homo sapiens, UniProt P07949, V804L)
T3 construct: purchased Eurofins/DiscoveRx; host or cells: E. coli BL21-derived host (T7 phage display) for most kinases; HEK-293 for the rest
How it was run: as §1

[4] = biological target: T4, kinases (Homo sapiens, UniProt P36888)
T4 construct: purchased Eurofins/DiscoveRx; host or cells: E. coli BL21-derived host (T7 phage display) for most kinases; HEK-293 for the rest
T4 sequence (P36888 27-993): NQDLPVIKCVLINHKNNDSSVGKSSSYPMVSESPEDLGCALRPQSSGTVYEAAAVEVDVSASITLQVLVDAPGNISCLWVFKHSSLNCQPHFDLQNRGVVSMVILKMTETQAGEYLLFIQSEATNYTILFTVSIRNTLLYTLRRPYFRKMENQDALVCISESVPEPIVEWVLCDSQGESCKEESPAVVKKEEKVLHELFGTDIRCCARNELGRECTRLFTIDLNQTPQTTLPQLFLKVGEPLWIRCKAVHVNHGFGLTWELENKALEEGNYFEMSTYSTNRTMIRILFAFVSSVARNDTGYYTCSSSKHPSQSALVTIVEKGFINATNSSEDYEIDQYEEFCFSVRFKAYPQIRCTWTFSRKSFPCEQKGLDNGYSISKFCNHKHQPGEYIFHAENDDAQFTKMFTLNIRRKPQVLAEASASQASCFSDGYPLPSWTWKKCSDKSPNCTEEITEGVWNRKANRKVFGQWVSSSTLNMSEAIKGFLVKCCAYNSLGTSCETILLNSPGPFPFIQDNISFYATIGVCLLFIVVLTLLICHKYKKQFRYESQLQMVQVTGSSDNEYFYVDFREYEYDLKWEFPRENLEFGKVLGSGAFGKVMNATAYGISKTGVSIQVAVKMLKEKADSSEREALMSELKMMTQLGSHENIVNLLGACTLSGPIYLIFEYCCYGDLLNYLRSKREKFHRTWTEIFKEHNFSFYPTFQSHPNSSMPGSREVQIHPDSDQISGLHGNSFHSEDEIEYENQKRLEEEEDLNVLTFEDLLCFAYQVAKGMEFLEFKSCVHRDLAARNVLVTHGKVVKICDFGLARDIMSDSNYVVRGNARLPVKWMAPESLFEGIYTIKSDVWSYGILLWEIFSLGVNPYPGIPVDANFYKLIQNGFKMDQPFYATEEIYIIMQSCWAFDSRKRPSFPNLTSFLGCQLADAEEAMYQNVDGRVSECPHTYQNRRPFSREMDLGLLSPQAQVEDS
How it was run: as §1

[5] = biological target: T5, kinases (Homo sapiens, UniProt P10721, D816H)
T5 construct: purchased Eurofins/DiscoveRx; host or cells: E. coli BL21-derived host (T7 phage display) for most kinases; HEK-293 for the rest
How it was run: as §1

[6] = biological target: T6, kinases (Homo sapiens, UniProt P00533, DEL752-759)
T6 construct: purchased Eurofins/DiscoveRx; host or cells: E. coli BL21-derived host (T7 phage display) for most kinases; HEK-293 for the rest
How it was run: as §1

[7] = biological target: T7, kinases (Homo sapiens, UniProt P10721, V559D)
T7 construct: purchased Eurofins/DiscoveRx; host or cells: E. coli BL21-derived host (T7 phage display) for most kinases; HEK-293 for the rest
How it was run: as §1

[8] = biological target: T8, kinases (Homo sapiens, UniProt P10721)
T8 construct: purchased Eurofins/DiscoveRx; host or cells: E. coli BL21-derived host (T7 phage display) for most kinases; HEK-293 for the rest
How it was run: as §1

[9] = biological target: T9, kinases (Homo sapiens, UniProt P00533, T790M)
T9 construct: purchased Eurofins/DiscoveRx; host or cells: E. coli BL21-derived host (T7 phage display) for most kinases; HEK-293 for the rest
How it was run: as §1

[10] = biological target: T10, kinases (Homo sapiens, UniProt P35916)
T10 construct: purchased Eurofins/DiscoveRx; host or cells: E. coli BL21-derived host (T7 phage display) for most kinases; HEK-293 for the rest
How it was run: as §1

[11] = biological target: T11, kinases (Homo sapiens, UniProt P07949, M918T)
T11 construct: purchased Eurofins/DiscoveRx; host or cells: E. coli BL21-derived host (T7 phage display) for most kinases; HEK-293 for the rest
How it was run: as §1

[12] = biological target: T12, kinases (Homo sapiens, UniProt P42684)
T12 construct: purchased Eurofins/DiscoveRx; host or cells: E. coli BL21-derived host (T7 phage display) for most kinases; HEK-293 for the rest
How it was run: as §1

[13] = biological target: T13, kinases (Homo sapiens, UniProt P09619)
T13 construct: purchased Eurofins/DiscoveRx; host or cells: E. coli BL21-derived host (T7 phage display) for most kinases; HEK-293 for the rest
How it was run: as §1

[14] = biological target: T14, kinases (Homo sapiens, UniProt P00519, M351T)
T14 construct: purchased Eurofins/DiscoveRx; host or cells: E. coli BL21-derived host (T7 phage display) for most kinases; HEK-293 for the rest
How it was run: as §1

[15] = biological target: T15, kinases (Homo sapiens, UniProt P07949, V804M)
T15 construct: purchased Eurofins/DiscoveRx; host or cells: E. coli BL21-derived host (T7 phage display) for most kinases; HEK-293 for the rest
How it was run: as §1

[16] = 1 μM; ABL1(H396P)-nonphosphorylated
[17] = 1 μM; ABL1(H396P)-phosphorylated
[18] = 1 μM; ABL1(M351T)-phosphorylated

T8 sequence (P10721 26-976): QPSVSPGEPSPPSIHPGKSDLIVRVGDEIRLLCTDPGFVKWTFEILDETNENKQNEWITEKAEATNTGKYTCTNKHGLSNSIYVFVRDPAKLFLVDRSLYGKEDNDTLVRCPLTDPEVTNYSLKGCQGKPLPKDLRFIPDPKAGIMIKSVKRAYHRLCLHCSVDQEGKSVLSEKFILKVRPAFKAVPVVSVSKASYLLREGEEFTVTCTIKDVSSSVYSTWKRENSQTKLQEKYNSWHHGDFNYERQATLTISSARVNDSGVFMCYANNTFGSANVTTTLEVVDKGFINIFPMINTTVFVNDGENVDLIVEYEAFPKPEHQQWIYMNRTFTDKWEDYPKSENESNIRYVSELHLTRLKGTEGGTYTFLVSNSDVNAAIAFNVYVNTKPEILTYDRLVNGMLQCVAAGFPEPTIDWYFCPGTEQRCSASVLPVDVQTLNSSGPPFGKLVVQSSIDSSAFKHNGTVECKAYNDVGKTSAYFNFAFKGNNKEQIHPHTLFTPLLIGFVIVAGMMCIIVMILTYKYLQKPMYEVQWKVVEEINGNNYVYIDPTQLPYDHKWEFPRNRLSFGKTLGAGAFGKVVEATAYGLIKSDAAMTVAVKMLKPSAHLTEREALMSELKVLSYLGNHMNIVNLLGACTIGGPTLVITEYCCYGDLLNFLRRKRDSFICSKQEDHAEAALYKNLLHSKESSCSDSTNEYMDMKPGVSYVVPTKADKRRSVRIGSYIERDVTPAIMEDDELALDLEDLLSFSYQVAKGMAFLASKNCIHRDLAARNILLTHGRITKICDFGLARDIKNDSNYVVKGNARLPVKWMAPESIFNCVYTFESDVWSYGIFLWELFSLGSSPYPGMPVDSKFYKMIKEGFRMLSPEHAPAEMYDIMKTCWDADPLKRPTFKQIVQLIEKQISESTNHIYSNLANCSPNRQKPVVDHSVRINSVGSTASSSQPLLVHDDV
T3 sequence (P07949 29-1114 V804L): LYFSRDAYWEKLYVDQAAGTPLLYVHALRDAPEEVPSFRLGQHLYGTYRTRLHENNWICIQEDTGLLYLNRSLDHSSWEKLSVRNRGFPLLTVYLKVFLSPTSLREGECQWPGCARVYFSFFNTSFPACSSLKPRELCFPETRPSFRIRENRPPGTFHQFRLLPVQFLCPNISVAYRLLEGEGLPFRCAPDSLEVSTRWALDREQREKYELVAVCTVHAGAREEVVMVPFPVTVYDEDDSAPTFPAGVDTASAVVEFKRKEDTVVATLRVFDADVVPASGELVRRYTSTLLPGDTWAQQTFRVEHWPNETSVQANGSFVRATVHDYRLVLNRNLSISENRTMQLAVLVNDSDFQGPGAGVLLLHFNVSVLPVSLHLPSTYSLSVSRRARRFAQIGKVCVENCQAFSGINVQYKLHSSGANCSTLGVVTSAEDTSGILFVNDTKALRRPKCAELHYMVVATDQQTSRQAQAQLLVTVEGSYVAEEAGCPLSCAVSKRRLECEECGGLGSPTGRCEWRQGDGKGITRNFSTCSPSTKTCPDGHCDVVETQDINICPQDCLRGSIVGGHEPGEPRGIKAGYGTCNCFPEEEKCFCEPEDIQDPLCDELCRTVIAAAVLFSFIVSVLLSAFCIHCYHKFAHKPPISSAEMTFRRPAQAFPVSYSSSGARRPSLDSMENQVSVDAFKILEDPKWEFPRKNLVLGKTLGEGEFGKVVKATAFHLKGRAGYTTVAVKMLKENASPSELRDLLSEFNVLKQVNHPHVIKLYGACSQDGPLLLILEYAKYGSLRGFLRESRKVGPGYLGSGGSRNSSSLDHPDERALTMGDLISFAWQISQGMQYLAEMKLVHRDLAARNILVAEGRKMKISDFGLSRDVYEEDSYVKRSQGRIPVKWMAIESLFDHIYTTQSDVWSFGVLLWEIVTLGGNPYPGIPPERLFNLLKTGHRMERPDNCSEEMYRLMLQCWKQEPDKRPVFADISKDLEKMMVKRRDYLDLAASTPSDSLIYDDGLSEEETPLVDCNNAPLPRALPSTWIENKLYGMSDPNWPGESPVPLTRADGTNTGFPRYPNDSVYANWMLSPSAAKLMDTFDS
T13 sequence (P09619 33-1106): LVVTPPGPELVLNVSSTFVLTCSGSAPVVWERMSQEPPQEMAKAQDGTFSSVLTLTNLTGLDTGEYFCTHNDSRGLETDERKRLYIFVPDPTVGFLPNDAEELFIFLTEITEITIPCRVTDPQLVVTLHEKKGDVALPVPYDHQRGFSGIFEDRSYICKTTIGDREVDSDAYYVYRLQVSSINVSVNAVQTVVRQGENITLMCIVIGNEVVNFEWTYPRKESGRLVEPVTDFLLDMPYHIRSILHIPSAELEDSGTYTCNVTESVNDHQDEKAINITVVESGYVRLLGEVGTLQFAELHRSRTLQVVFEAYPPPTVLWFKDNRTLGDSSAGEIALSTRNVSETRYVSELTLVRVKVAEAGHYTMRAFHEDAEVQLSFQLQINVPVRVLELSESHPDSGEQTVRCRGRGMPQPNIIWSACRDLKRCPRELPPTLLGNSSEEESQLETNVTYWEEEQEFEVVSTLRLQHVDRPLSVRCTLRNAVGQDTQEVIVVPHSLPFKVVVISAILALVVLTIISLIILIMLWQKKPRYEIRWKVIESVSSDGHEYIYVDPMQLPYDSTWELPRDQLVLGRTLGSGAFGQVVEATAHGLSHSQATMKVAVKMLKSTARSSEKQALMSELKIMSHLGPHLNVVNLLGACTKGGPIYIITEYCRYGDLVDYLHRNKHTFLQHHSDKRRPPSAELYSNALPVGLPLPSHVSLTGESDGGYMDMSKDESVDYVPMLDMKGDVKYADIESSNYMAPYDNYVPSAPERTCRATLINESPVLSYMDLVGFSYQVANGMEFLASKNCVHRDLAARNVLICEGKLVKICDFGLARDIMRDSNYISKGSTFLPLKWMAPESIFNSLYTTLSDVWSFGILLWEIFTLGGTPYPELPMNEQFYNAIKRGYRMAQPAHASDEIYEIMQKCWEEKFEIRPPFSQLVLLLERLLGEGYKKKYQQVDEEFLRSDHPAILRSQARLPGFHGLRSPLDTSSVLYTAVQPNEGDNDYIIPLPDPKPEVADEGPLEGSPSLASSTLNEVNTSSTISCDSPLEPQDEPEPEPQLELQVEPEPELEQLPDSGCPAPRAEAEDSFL
T7 sequence (P10721 26-976 V559D): as the sequence (P10721 26-976) above, with V534D counted along it
T15 sequence (P07949 29-1114 V804M): as the sequence (P07949 29-1114 V804L) above, with L776M counted along it
T5 sequence (P10721 26-976 D816H): as the sequence (P10721 26-976) above, with D791H counted along it
T10 sequence (P35916 25-1363): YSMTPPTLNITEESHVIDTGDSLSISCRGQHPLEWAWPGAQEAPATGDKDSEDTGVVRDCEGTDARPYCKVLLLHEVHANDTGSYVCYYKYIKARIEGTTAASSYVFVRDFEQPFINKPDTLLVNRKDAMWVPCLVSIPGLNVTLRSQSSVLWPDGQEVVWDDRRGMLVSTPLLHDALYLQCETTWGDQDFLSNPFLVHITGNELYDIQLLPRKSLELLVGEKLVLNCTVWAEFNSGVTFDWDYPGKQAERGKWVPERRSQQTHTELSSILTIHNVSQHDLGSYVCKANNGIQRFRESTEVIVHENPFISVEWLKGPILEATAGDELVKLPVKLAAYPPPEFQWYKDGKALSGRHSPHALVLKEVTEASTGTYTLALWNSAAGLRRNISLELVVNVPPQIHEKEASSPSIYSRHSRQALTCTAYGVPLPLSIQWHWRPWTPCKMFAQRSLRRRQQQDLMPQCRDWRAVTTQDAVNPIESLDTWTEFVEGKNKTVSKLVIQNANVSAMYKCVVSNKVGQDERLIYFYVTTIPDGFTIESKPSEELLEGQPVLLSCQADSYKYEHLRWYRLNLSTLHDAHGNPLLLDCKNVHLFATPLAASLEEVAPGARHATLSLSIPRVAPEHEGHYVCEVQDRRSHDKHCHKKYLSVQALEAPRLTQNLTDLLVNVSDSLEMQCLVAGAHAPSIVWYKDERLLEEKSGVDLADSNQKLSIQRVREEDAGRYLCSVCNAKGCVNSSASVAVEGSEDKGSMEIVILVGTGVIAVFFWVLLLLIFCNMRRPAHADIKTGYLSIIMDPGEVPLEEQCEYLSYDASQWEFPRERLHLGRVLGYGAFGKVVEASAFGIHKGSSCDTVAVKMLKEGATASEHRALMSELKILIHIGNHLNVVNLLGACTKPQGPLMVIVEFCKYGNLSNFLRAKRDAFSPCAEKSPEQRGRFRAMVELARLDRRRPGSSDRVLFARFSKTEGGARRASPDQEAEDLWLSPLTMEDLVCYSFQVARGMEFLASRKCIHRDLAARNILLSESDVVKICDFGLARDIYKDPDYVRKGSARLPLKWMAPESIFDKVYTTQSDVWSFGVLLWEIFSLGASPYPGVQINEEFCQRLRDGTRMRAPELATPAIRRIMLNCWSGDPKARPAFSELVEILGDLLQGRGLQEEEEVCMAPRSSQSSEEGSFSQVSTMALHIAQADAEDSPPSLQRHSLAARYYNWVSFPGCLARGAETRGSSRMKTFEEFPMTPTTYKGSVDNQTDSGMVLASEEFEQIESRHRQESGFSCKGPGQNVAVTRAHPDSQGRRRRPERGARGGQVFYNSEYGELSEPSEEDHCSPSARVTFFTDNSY
T11 sequence (P07949 29-1114 M918T): as the sequence (P07949 29-1114 V804L) above, with L776V, M890T counted along it

Row | % Ctrl, EGFR(L861Q) ([1]; 1 μM; EGFR(L861Q)) | % Ctrl, ABL1(H396P)-nonphosphorylated [2, 16] | % Ctrl, ABL1(H396P)-phosphorylated [2, 17] | % Ctrl, RET(V804L) ([3]; 1 μM; RET(V804L)) | % Ctrl, FLT3 ([4]; 1 μM; FLT3) | % Ctrl, FLT3-autoinhibited ([4]; 1 μM; FLT3-autoinhibited) | % Ctrl, KIT(D816H) ([5]; 1 μM; KIT(D816H)) | % Ctrl, EGFR(S752-I759del) ([6]; 1 μM; EGFR(S752-I759del)) | % Ctrl, KIT(V559D) ([7]; 1 μM; KIT(V559D)) | % Ctrl, KIT ([8]; 1 μM; KIT) | % Ctrl, KIT-autoinhibited ([8]; 1 μM; KIT-autoinhibited) | % Ctrl, EGFR(T790M) ([9]; 1 μM; EGFR(T790M)) | % Ctrl, FLT4 ([10]; 1 μM; FLT4) | % Ctrl, RET(M918T) ([11]; 1 μM; RET(M918T)) | % Ctrl, ABL2 ([12]; 1 μM; ABL2) | % Ctrl, PDGFRB ([13]; 1 μM; PDGFRB) | % Ctrl, ABL1(M351T)-phosphorylated [14, 18] | % Ctrl, RET(V804M) ([15]; 1 μM; RET(V804M)) | Structure (SMILES) | other results
1 | 90 % Ctrl | 64 % Ctrl | 89 % Ctrl | 100 % Ctrl | 99 % Ctrl | 77 % Ctrl | 65 % Ctrl | 91 % Ctrl | 100 % Ctrl | 100 % Ctrl | 81 % Ctrl | 100 % Ctrl | 91 % Ctrl | 95 % Ctrl | 100 % Ctrl | 98 % Ctrl | 78 % Ctrl | 97 % Ctrl | Cc1cc2c([nH]1)/C=C1\C(=O)Nc3ccc(cc31)-c1ccnn1CCNCCNC2=O [Ex. 43, [19a(20)Z]-2-methyl-5,6,7,8,9,10-hexahydro-15,17-(ethanediylidene)pyrazolo[1,5-g]dipyrrolo[3,4-k:2′,3′-n][1,4,7]triazacyclohexadecine-4,19(1H,18H)-dione] | –
2 | – | – | – | – | – | – | – | – | – | – | – | – | – | – | – | – | – | – | Cc1cc2c([nH]1)/C=C1\C(=O)Nc3cc(Cl)c(cc31)OCCO[C@@H](C(=O)N1CCN(C)CC1)CN(C)C2=O [Ex. 138, [7R,16a(17)Z]-19-chloro-2,5-dimethyl-7-(4-methylpipearazine-1-carbonyl)-6,7,9,10-tetrahydro-1H-12,14-(ethanediylidene)dipyrrolo[3,2-i:3′,4′-l][1,4,7]dioxazacyclopentadecine-4,16(5H,15H)-dione] | % Ctrl, EGFR(L861Q) ([1]; target EGFR(L861Q); 1 μM): 100 % Ctrl; % Ctrl, ABL1(H396P)-nonphosphorylated ([2]; target ABL1(H396P)-nonphosphorylated; 1 μM): 69 % Ctrl; % Ctrl, ABL1(H396P)-phosphorylated ([2]; target ABL1(H396P)-phosphorylated; 1 μM): 82 % Ctrl; % Ctrl, RET(V804L) ([3]; target RET(V804L); 1 μM): 83 % Ctrl; % Ctrl, FLT3-autoinhibited ([4]; target FLT3-autoinhibited; 1 μM): 76 % Ctrl; % Ctrl, FLT3 ([4]; target FLT3; 1 μM): 77 % Ctrl; % Ctrl, KIT(D816H) ([5]; target KIT(D816H); 1 μM): 82 % Ctrl; % Ctrl, EGFR(S752-I759del) ([6]; target EGFR(S752-I759del); 1 μM): 92 % Ctrl; % Ctrl, KIT(V559D) ([7]; target KIT(V559D); 1 μM): 97 % Ctrl; % Ctrl, KIT-autoinhibited ([8]; target KIT-autoinhibited; 1 μM): 96 % Ctrl; % Ctrl, KIT ([8]; target KIT; 1 μM): 90 % Ctrl; % Ctrl, EGFR(T790M) ([9]; target EGFR(T790M); 1 μM): 94 % Ctrl; % Ctrl, FLT4 ([10]; target FLT4; 1 μM): 97 % Ctrl; % Ctrl, RET(M918T) ([11]; target RET(M918T); 1 μM): 72 % Ctrl; % Ctrl, ABL2 ([12]; target ABL2; 1 μM): 98 % Ctrl; % Ctrl, PDGFRB ([13]; target PDGFRB; 1 μM): 95 % Ctrl; % Ctrl, ABL1(M351T)-phosphorylated ([14]; target ABL1(M351T)-phosphorylated; 1 μM): 71 % Ctrl; % Ctrl, RET(V804M) ([15]; target RET(V804M); 1 μM): 81 % Ctrl
3 | 78 % Ctrl | 0 % Ctrl | 0 % Ctrl | 0 % Ctrl | 0.6 % Ctrl | 5.1 % Ctrl | 6.2 % Ctrl | 70 % Ctrl | 0.15 % Ctrl | 1.1 % Ctrl | 13 % Ctrl | 61 % Ctrl | 0 % Ctrl | 0 % Ctrl | 1.8 % Ctrl | 1.4 % Ctrl | 0.2 % Ctrl | 0.15 % Ctrl | Cc1cc2c([nH]1)/C=C1\C(=O)Nc3cc(Cl)c(cc31)OCCOCCN(C)C2=O [Ex. 131, [16a(17)Z]-19-chloro-2,5-dimethyl-6,7,9,10-tetrahydro-1H-12,14-(ethanediylidene)dipyrrolo[3,2-i:3′,4′-l][1,4,7]dioxazacyclopentadecine-4,16(5H,15H)-dione] | –
4 | – | – | – | – | – | – | – | – | – | – | – | – | – | – | – | – | – | – | Cc1cc2c([nH]1)/C=C1\C(=O)Nc3ccc(cc31)-c1cnn(C)c1OCCCN(C)C2=O [Ex. 166, [3a(4)Z]-9,14-dimethyl-9,10,11,12-tetrahydro-14H-1,17-(ethanediylidene)pyrazolo[4,3-n]dipyrrolo[3,2-g:3′,4′-j][1,5]oxazacyclopentadecine-3,8(2H,5H)-dione] | % Ctrl, EGFR(L861Q) ([1]; 1 μM; target EGFR(L861Q)): 99 % Ctrl; % Ctrl, ABL1(H396P)-nonphosphorylated ([2]; 1 μM; target ABL1(H396P)-nonphosphorylated): 0.7 % Ctrl; % Ctrl, ABL1(H396P)-phosphorylated ([2]; 1 μM; target ABL1(H396P)-phosphorylated): 4.3 % Ctrl; % Ctrl, RET(V804L) ([3]; 1 μM; target RET(V804L)): 0.3 % Ctrl; % Ctrl, FLT3 ([4]; 1 μM; target FLT3): 4.2 % Ctrl; % Ctrl, FLT3-autoinhibited ([4]; 1 μM; target FLT3-autoinhibited): 2 % Ctrl; % Ctrl, KIT(D816H) ([5]; 1 μM; target KIT(D816H)): 10 % Ctrl; % Ctrl, EGFR(S752-I759del) ([6]; 1 μM; target EGFR(S752-I759del)): 93 % Ctrl; % Ctrl, KIT(V559D) ([7]; 1 μM; target KIT(V559D)): 54 % Ctrl; % Ctrl, KIT ([8]; 1 μM; target KIT): 100 % Ctrl; % Ctrl, KIT-autoinhibited ([8]; 1 μM; target KIT-autoinhibited): 87 % Ctrl; % Ctrl, EGFR(T790M) ([9]; 1 μM; target EGFR(T790M)): 26 % Ctrl; % Ctrl, FLT4 ([10]; 1 μM; target FLT4): 49 % Ctrl; % Ctrl, RET(M918T) ([11]; 1 μM; target RET(M918T)): 2.9 % Ctrl; % Ctrl, ABL2 ([12]; 1 μM; target ABL2): 51 % Ctrl; % Ctrl, PDGFRB ([13]; 1 μM; target PDGFRB): 16 % Ctrl; % Ctrl, ABL1(M351T)-phosphorylated ([14]; 1 μM; target ABL1(M351T)-phosphorylated): 3.1 % Ctrl; % Ctrl, RET(V804M) ([15]; 1 μM; target RET(V804M)): 0.1 % Ctrl
5 | 77 % Ctrl | 0 % Ctrl | 0.1 % Ctrl | 0 % Ctrl | 0.45 % Ctrl | 0.15 % Ctrl | 0.65 % Ctrl | 73 % Ctrl | 35 % Ctrl | 42 % Ctrl | 95 % Ctrl | 11 % Ctrl | 0.11 % Ctrl | 0 % Ctrl | 2.2 % Ctrl | 0.4 % Ctrl | 0.1 % Ctrl | 0 % Ctrl | Cc1cc2c([nH]1)/C=C1\C(=O)Nc3ccc(cc31)-c1cnn(C)c1CNCCN(C)C2=O [Ex. 125, [3a(4)Z]-6,9,14-trimethyl-9,10,11,12,13,14-hexahydro-1,17-(ethanediylidene)pyrazolo[4,3-m]dipyrrolo[3,2-f:3′,4′-i][1,4]diazacyclopentadecine-3,8(2H,5H)-dione] | –
